Data as given in patent publication US10618903B2, “Heteroaryl substituted aminopyridine compounds” (BRISTOL-MYERS SQUIBB COMPANY, priority 2015, dated 2020).

Columns and labels:
IRAK4 = IRAK4 (Homo sapiens (Human), UniProt Q9NWZ3); assay: IRAK4 Inhibition Assay; format: biochemical; settings: ATP 500 μM; IRAK4 0.6 nM
How it was run: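 Mobility-shift kinase assay: 0.6 nM IRAK4, 500 μM ATP, 1.5 μM fluorescent peptide, 60 min, room temperature. Percent inhibition was normalised between enzyme-free and DMSO-only wells.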

[1] = tested on: IL-6 levels in human whole blood stimulated with a TLR2 agonist; assay: IRAK4 Whole Blood Assay (lipoteichoic acid/TLR2-stimulated IL-6); format: cell-based; settings: lipoteichoic acid 10 μg/mL, IL-6 readout
How it was run: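 IL-6 was quantified by cytometric bead assay in supernatants of human blood (ACD-A) stimulated for 5 h with lipoteichoic acid at 10 μg/mL final. Compound exposure preceded stimulation for 60 min at 37 °C, 5% CO2.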

Caco Permeability Assay = format: in vitro ADME; settings: human, Caco-2, Caco-2 cells, 3 μM compound

Chain of IRAK4 (Q9NWZ3 whole entry): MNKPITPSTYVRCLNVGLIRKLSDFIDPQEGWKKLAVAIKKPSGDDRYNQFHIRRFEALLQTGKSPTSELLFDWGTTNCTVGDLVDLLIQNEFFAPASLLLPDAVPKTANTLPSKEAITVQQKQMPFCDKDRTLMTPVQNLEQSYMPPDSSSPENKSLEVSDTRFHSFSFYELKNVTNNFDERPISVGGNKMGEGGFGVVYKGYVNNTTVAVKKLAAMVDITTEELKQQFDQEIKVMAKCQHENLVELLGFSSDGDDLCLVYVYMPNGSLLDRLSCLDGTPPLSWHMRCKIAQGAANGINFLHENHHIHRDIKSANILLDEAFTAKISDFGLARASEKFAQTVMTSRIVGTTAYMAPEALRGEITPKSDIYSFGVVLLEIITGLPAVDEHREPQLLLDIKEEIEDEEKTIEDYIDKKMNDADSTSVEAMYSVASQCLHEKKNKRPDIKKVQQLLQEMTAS

Structure (SMILES) | IC50 (IRAK4) | EC50 ([1]; Homo sapiens) | Papp at 2 h, 3 µM (Caco Permeability Assay) | EC50 [1]
CC(C)(O)[C@H](F)CNC(=O)c1cnc(-c2cnn3cc(C#N)cnc23)cc1NCC(F)F [Example 171, (R)-6-(6-cyanopyrazolo[1,5-a]pyrimidin-3-yl)-4-((2,2-difluoroethyl)amino)-N-(2-fluoro-3-hydroxy-3-methylbutyl)nicotinamide] | 6 nM | 360 nM | 1.9 ×10⁻⁶ cm/s | –
CC(F)(F)CNc1cc(-c2cnn3cc(C#N)cnc23)ncc1C(=O)NC[C@@H](F)C(C)(C)O [Example 172, (R)-6-(6-cyanopyrazolo[1,5-a]pyrimidin-3-yl)-4-((2,2-difluoropropyl)amino)-N-(2-fluoro-3-hydroxy-3-methylbutyl)nicotinamide] | 4 nM | 460 nM | 4.2 ×10⁻⁶ cm/s | –
CC(C)Nc1cc(-c2cnc3cccnn23)ncc1C(=O)NC[C@@H](F)C(C)(C)O [Example 177, (R)—N-(2-fluoro-3-hydroxy-3-methylbutyl)-6-(imidazo[1,2-b]pyridazin-3-yl)-4-(isopropylamino)nicotinamide] | 10 nM | – | 12.6 ×10⁻⁶ cm/s | 880 nM
CCNc1cc(-c2cnc3cc(Cl)cnn23)ncc1C(=O)NC[C@@H](F)C(C)(C)O [Example 178, (R)-6-(7-chloroimidazo[1,2-b]pyridazin-3-yl)-4-(ethylamino)-N-(2-fluoro-3-hydroxy-3-methylbutyl)nicotinamide] | 4 nM | 710 nM | 21.5 ×10⁻⁶ cm/s | –
CCCNc1cc(-c2cnc3cc(Cl)cnn23)ncc1C(=O)NC[C@@H](F)C(C)(C)O [Example 179, (R)-6-(7-chloroimidazo[1,2-b]pyridazin-3-yl)-N-(2-fluoro-3-hydroxy-3-methylbutyl)-4-(propylamino)nicotinamide] | 3 nM | 700 nM | 16.8 ×10⁻⁶ cm/s | –
CC(C)(O)[C@H](F)CNC(=O)c1cnc(-c2cnc3cc(Cl)cnn23)cc1NC1CCC1 [Example 180, (R)-6-(7-chloroimidazo[1,2-b]pyridazin-3-yl)-4-(cyclobutylamino)-N-(2-fluoro-3-hydroxy-3-methylbutyl)nicotinamide] | 2 nM | 930 nM | 16.5 ×10⁻⁶ cm/s | –
C[C@@H](CO)Nc1cc(-c2cnc3cc(Cl)cnn23)ncc1C(=O)NC[C@@H](F)C(C)(C)O [Example 181, 6-(7-chloroimidazo[1,2-b]pyridazin-3-yl)-N—((R)-2-fluoro-3-hydroxy-3-methylbutyl)-4-(((S)-1-hydroxypropan-2-yl)amino)nicotinamide] | 3 nM | 100 nM | < 1.5 ×10⁻⁶ cm/s | –
Cc1cnn2c(-c3cc(NC4CC4)c(C(=O)NC[C@@H](F)C(C)(C)O)cn3)cnc2c1 [Example 184, (R)-4-(cyclopropylamino)-N-(2-fluoro-3-hydroxy-3-methylbutyl)-6-(7-methylimidazo[1,2-b]pyridazin-3-yl)nicotinamide] | 5 nM | 510 nM | 3.4 ×10⁻⁶ cm/s | –
CC(C)Nc1cc(-c2cnc3cc(C#N)cnn23)ncc1C(=O)NCCC(C)(C)O [Example 186, 6-(7-cyanoimidazo[1,2-b]pyridazin-3-yl)-N-(3-hydroxy-3-methylbutyl)-4-(isopropylamino) nicotinamide] | 5 nM | 250 nM | 12.2 ×10⁻⁶ cm/s | –
CCNc1cc(-c2cnc3cc(C#N)cnn23)ncc1C(=O)NC[C@@H](F)C(C)(C)O [Example 188, (R)-6-(7-cyanoimidazo[1,2-b]pyridazin-3-yl)-4-(ethylamino)-N-(2-fluoro-3-hydroxy-3-methylbutyl)nicotinamide] | 5 nM | 240 nM | 6.7 ×10⁻⁶ cm/s | –
CC(C)(F)[C@H](F)CNC(=O)c1cnc(-c2cnc3cc(Cl)cnn23)cc1NC1COC1 [Example 189, (R)-6-(7-chloroimidazo[1,2-b]pyridazin-3-yl)-N-(2,3-difluoro-3-methylbutyl)-4-(oxetan-3-ylamino)nicotinamide] | 7 nM | 490 nM | 31.2 ×10⁻⁶ cm/s | –
CC(C)(C)CCNC(=O)c1cnc(-c2cnc3cc(Cl)cnn23)cc1NC1COC1 [Example 192, 6-(7-chloroimidazo[1,2-b]pyridazin-3-yl)-N-(3,3-dimethylbutyl)-4-(oxetan-3-ylamino)nicotinamide] | 10 nM | 500 nM | 29.9 ×10⁻⁶ cm/s | –

Continued by falling IC50 (IRAK4), values first:

IC50 (IRAK4) | EC50 ([1]; Homo sapiens) | Papp at 2 h, 3 µM (Caco Permeability Assay) | EC50 [1] | Structure (SMILES)
8 nM | 230 nM | 4.2 ×10⁻⁶ cm/s | – | CC(C)Nc1cc(-c2cnc3cc(C#N)cnn23)ncc1C(=O)NC[C@H](F)C(C)(C)O [Example 194, (S)-6-(7-cyanoimidazo[1,2-b]pyridazin-3-yl)-N-(2-fluoro-3-hydroxy-3-methylbutyl)-4-(isopropylamino)nicotinamide]
7 nM | 820 nM | 4.7 ×10⁻⁶ cm/s | – | Cc1cnn2c(-c3cc(NC4CCC4)c(C(=O)NC[C@@H](F)C(C)(C)O)cn3)cnc2c1 [Example 185, (R)-4-(cyclobutylamino)-N-(2-fluoro-3-hydroxy-3-methylbutyl)-6-(7-methylimidazo[1,2-b]pyridazin-3-yl)nicotinamide]
6 nM | 610 nM | 15.3 ×10⁻⁶ cm/s | – | CC(C)(O)[C@H](F)CNC(=O)c1cnc(-c2cnc3cc(Cl)cnn23)cc1NCCC(F)(F)F [Example 190, (R)-6-(7-chloroimidazo[1,2-b]pyridazin-3-yl)-N-(2-fluoro-3-hydroxy-3-methylbutyl)-4-((3,3,3-trifluoropropyl)amino)nicotinamide]
4 nM | 700 nM | 3.7 ×10⁻⁶ cm/s | – | CC(C)(O)[C@H](F)CNC(=O)c1cnc(-c2cnc3cc(C#N)cnn23)cc1NC1CC(F)(F)C1 [Example 195, (R)-6-(7-cyanoimidazo[1,2-b]pyridazin-3-yl)-4-((3,3-difluorocyclobutyl)amino)-N-(2-fluoro-3-hydroxy-3-methylbutyl)nicotinamide]
4 nM | 550 nM | 15.8 ×10⁻⁶ cm/s | – | CC(C)(O)[C@H](F)CNC(=O)c1cnc(-c2cnc3cc(Cl)cnn23)cc1NC1CC(F)C1 (stereo partly drawn) [Example 199, (R)-6-(7-chloroimidazo[1,2-b]pyridazin-3-yl)-N-(2-fluoro-3-hydroxy-3-methylbutyl)-4-((3-fluorocyclobutyl)amino)nicotinamide]
2 nM | 750 nM | 8.9 ×10⁻⁶ cm/s | – | CC(C)(O)[C@H](F)CNC(=O)c1cnc(-c2cnc3cc(C#N)cnn23)cc1NC1CCC1 [Example 183, (R)-6-(7-cyanoimidazo[1,2-b]pyridazin-3-yl)-4-(cyclobutylamino)-N-(2-fluoro-3-hydroxy-3-methylbutyl)nicotinamide]
2 nM | 280 nM | < 1.5 ×10⁻⁶ cm/s | – | CC(C)Nc1cc(-c2cnc3cc(C#N)cnn23)ncc1C(=O)NCC(F)C1CCNCC1 (stereo not drawn) [Example 197, 6-(7-cyanoimidazo[1,2-b]pyridazin-3-yl)-N-(2-fluoro-2-(piperidin-4-yl)ethyl)-4-(isopropylamino)nicotinamide]
1 nM | 470 nM | 18.4 ×10⁻⁶ cm/s | – | CC1(Nc2cc(-c3cnc4cc(Cl)cnn34)ncc2C(=O)NC[C@H](F)C(C)(C)O)CC1 [Example 198, (S)-6-(7-chloroimidazo[1,2-b]pyridazin-3-yl)-N-(2-fluoro-3-hydroxy-3-methylbutyl)-4-((1-methylcyclopropyl)amino) nicotinamide]
